Measurements as given in patent publication US9562053B2, “Benzo-fused heterocyclic derivatives useful as agonists of GPR120” (Janssen Pharmaceutica NV, priority 2013, dated 2017).

Molecular target: T1, long form of human GPR120 (Homo sapiens, UniProt Q5NUL3)
T1 construct: host or cells: PathHunter CHO-K1 GPR120 β-Arrestin Cell Line
T1 sequence (Q5NUL3 1-377 isoform Q5NUL3-1): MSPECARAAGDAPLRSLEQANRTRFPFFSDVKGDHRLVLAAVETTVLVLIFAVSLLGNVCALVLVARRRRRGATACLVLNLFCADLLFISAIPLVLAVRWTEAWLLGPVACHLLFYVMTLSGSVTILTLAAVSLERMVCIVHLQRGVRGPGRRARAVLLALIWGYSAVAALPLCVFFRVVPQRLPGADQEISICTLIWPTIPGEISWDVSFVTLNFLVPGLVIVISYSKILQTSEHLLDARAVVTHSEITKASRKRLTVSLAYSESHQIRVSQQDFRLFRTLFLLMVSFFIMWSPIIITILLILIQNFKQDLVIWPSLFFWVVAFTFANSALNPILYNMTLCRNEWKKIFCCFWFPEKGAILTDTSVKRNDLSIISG
Assay: Human GPR120 DiscoveRx PathHunter Beta-Arrestin Assay, Procedure β-arrestin A (3000 cells per well)
Type: cell-based
Settings: read-out: GPR120 B-arrestin A EC50
Method in brief: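 PathHunter CHO-K1 cells with long-form receptor, 3000/well, seeded overnight at 37 °C; equilibrated 60 min at 37 °C in HBSS/20 mM HEPES/0.1% BSA, pH 7.4. Compound serial dilutions (25–0.012 μM) added for 90 min at 37 °C, detection 60 min at room temperature, luminescence read; EC50 from % of positive control, Hill slope fixed at 1.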

EC50 | SMILES
77 nM | CCc1cc2cc(OC(F)F)cc(COc3ccc(CCC(=O)O)c(C)c3C)c2o1 [Compound 57, 3-(4-{[5-(Difluoromethoxy)-2-ethyl-1-benzofuran-7-yl]methoxy}-2,3-dimethylphenyl)propanoic acid]
410 nM | CC#Cc1cc(COc2ccc(CCC(=O)O)c(C)c2C)c2oc(CCC)cc2c1 [Compound 58, 3-{2,3-Dimethyl-4-[(2-propyl-5-prop-1-yn-1-yl-1-benzofuran-7-yl)methoxy]phenyl}propanoic acid]
146 nM | CCCc1cc2cc(Cl)cc(COc3ccc(CCC(=O)O)c(F)c3F)c2o1 [Compound 59, 3-{4-[(5-Chloro-2-propyl-1-benzofuran-7-yl)methoxy]-2,3-difluorophenyl}propanoic acid]
706 nM | Cc1oc2cccc(COc3ccc(CCC(=O)O)c(C)c3C)c2c1C [Compound 60, 3-{4-[(2,3-Dimethyl-1-benzofuran-4-yl)methoxy]-2,3-dimethylphenyl}propanoic acid]
190 nM | CCc1cc2cc(Cl)c(CC)c(COc3ccc(CCC(=O)O)c(C)c3C)c2o1 [Compound 61, 3-{4-[(5-Chloro-2,6-diethyl-1-benzofuran-7-yl)methoxy]-2,3-dimethylphenyl}propanoic acid]
274 nM | CCOc1c(Cl)cc2cc(CC)oc2c1COc1ccc(CCC(=O)O)c(C)c1C [Compound 62, 3-{4-[(5-Chloro-6-ethoxy-2-ethyl-1-benzofuran-7-yl)methoxy]-2,3-dimethylphenyl}propanoic acid]
231 nM | CCc1cc2cc(Cl)c(OCCOC)c(COc3ccc(CCC(=O)O)c(C)c3C)c2o1 [Compound 63, 3-(4-{[5-Chloro-2-ethyl-6-(2-methoxyethoxy)-1-benzofuran-7-yl]methoxy}-2,3-dimethylphenyl)propanoic acid]
271 nM | CCc1cc2cc(Cl)c(OCC(F)(F)F)c(COc3ccc(CCC(=O)O)c(C)c3C)c2o1 [Compound 64, 3-(4-{[5-Chloro-2-ethyl-6-(2,2,2-trifluoroethoxy)-1-benzofuran-7-yl]methoxy}-2,3-dimethylphenyl)propanoic acid]
240 nM | CCc1cc2cc(Cl)c(OC(C)C)c(COc3ccc(CCC(=O)O)c(C)c3C)c2o1 [Compound 65, 3-(4-{[5-Chloro-2-ethyl-6-(1-methylethoxy)-1-benzofuran-7-yl]methoxy}-2,3-dimethylphenyl)propanoic acid]
1410 nM | CCOc1ccc2cc(CC)oc2c1COc1ccc(CCC(=O)O)c(C)c1C [Compound 66, 3-{4-[(6-Ethoxy-2-ethyl-1-benzofuran-7-yl)methoxy]-2,3-dimethylphenyl}propanoic acid]
221 nM | CCc1cc2cc(Cl)c(OCC(C)C)c(COc3ccc(CCC(=O)O)c(C)c3C)c2o1 [Compound 67, 3-(4-{[5-Chloro-2-ethyl-6-(2-methylpropoxy)-1-benzofuran-7-yl]methoxy}-2,3-dimethylphenyl)propanoic acid]
223 nM | CCc1cc2cc(Cl)c(OC(F)F)c(COc3ccc(CCC(=O)O)c(C)c3C)c2o1 [Compound 69, 3-(4-{[5-Chloro-6-(difluoromethoxy)-2-ethyl-1-benzofuran-7-yl]methoxy}-2,3-dimethylphenyl)propanoic acid]
45 nM | Cc1cc2c(F)c(OC(F)(F)F)c(F)c(COc3ccc(CCC(=O)O)c(C)c3C)c2o1 [Compound 71, 3-(4-{[4,6-Difluoro-2-methyl-5-(trifluoromethoxy)-1-benzofuran-7-yl]methoxy}-2,3-dimethylphenyl)propanoic acid]
394 nM | Cc1cc2c(F)c(OC(F)(F)F)c(F)c(COc3ccc(CCC(=O)O)c(F)c3F)c2o1 [Compound 75, 3-(4-{[4,6-Difluoro-2-methyl-5-(trifluoromethoxy)-1-benzofuran-7-yl]methoxy}-2,3-difluorophenyl)propanoic acid]
144 nM | Cc1cc2cc(OC(F)F)cc(COc3ccc(CCC(=O)O)c(C)c3C)c2o1 [Compound 76, 3-(4-{[5-(Difluoromethoxy)-2-methyl-1-benzofuran-7-yl]methoxy}-2,3-dimethylphenyl)propanoic acid]
176 nM | CCCc1cc2cc(OC(F)F)cc(COc3ccc(CCC(=O)O)c(C)c3C)c2o1 [Compound 77, 3-(4-{[5-(Difluoromethoxy)-2-propyl-1-benzofuran-7-yl]methoxy}-2,3-dimethylphenyl)propanoic acid]

EC50 | SMILES
121 nM | Cc1cc2cc(Cl)cc(COc3ccc(CCC(=O)O)c(C)c3C)c2o1 [Compound 78, 3-{4-[(5-Chloro-2-methyl-1-benzofuran-7-yl)methoxy]-2,3-dimethylphenyl}propanoic acid]
249 nM | Cc1oc2cc(Cl)cc(COc3ccc(CCC(=O)O)c(C)c3C)c2c1C [Compound 80, 3-{4-[(6-Chloro-2,3-dimethyl-1-benzofuran-4-yl)methoxy]-2,3-dimethylphenyl}propanoic acid]
817 nM | Cc1cc2c(COc3ccc(CCC(=O)O)c(C)c3C)cc(Cl)cc2o1 [Compound 81, 3-{4-[(6-Chloro-2-methyl-1-benzofuran-4-yl)methoxy]-2,3-dimethylphenyl}propanoic acid]
851 nM | Cc1cc2cc3c(c(COc4ccc(CCC(=O)O)c(C)c4C)c2o1)OCO3 [Compound 82, 3-{2,3-Dimethyl-4-[(6-methylfuro[2,3-f][1,3]benzodioxol-4-yl)methoxy]phenyl}propanoic acid]
440 nM | CC#Cc1cc(COc2ccc(CCC(=O)O)c(C)c2C)c2oc(C)cc2c1 [Compound 83, 3-{2,3-Dimethyl-4-[(2-methyl-5-prop-1-yn-1-yl-1-benzofuran-7-yl)methoxy]phenyl}propanoic acid]
434 nM | Cc1nc2cc(Cl)cc(COc3ccc(CCC(=O)O)c(C)c3C)c2o1 [Compound 84, 3-{4-[(5-Chloro-2-methyl-1,3-benzoxazol-7-yl)methoxy]-2,3-dimethylphenyl}propanoic acid]
238 nM | Cc1cc2cc(Cl)c(C)c(COc3ccc(CCC(=O)O)c(C)c3C)c2o1 [Compound 85, 3-{4-[(5-Chloro-2,6-dimethyl-1-benzofuran-7-yl)methoxy]-2,3-dimethylphenyl}propanoic acid]
460 nM | Cc1cc2cc(Cl)c(C)c(COc3c(F)cc(CCC(=O)O)cc3F)c2o1 [Compound 86, 3-{4-[(5-Chloro-2,6-dimethyl-1-benzofuran-7-yl)methoxy]-3,5-difluorophenyl}propanoic acid]
409 nM | Cc1c(CCC(=O)O)ccc(OCc2cc(Cl)cc3cc(CC(F)F)oc23)c1C [Compound 87, 3-(4-{[5-Chloro-2-(2,2-difluoroethyl)-1-benzofuran-7-yl]methoxy}-2,3-dimethylphenyl)propanoic acid]
119 nM | Cc1cc2cc3c(c(COc4ccc(CCC(=O)O)c(C)c4C)c2o1)OC(F)(F)O3 [Compound 89, 3-{4-[(2,2-Difluoro-6-methylfuro[2,3-f][1,3]benzodioxol-4-yl)methoxy]-2,3-dimethylphenyl}propanoic acid]
532 nM | Cc1cc2cc3c(c(COc4ccc(CCC(=O)O)c(C)c4C)c2o1)OCCO3 [Compound 90, 3-{2,3-Dimethyl-4-[(7-methyl-2,3-dihydrofuro[2,3-g][1,4]benzodioxin-5-yl)methoxy]phenyl}propanoic acid]
629 nM | Cc1cc2cc(Cl)cc(COc3ccc(CCC(=O)O)c(C)c3C)c2s1 [Compound 91, 3-{4-[(5-Chloro-2-methyl-1-benzothiophen-7-yl)methoxy]-2,3-dimethylphenyl}propanoic acid]
536 nM | Cc1cc2cc(Cl)cc(COc3c(F)cc(CCCO)cc3F)c2s1 [Compound 93, 3-{4-[(5-Chloro-2-methyl-1-benzothiophen-7-yl)methoxy]-3,5-difluorophenyl}propan-1-ol]
148 nM | Cc1c(CCC(=O)O)ccc(OCc2cc(OC(F)(F)F)cc3cc(CC(F)F)oc23)c1C [Compound 96, 3-(4-{[2-(2,2-Difluoroethyl)-5-(trifluoromethoxy)-1-benzofuran-7-yl]methoxy}-2,3-dimethylphenyl)propanoic acid]
154 nM | Cc1nc2c(COc3ccc(CCC(=O)O)c(C)c3C)cc(Cl)cc2s1 [Compound 98, 3-{4-[(6-Chloro-2-methyl-1,3-benzothiazol-4-yl)methoxy]-2,3-dimethylphenyl}propanoic acid]
